{"source": "patent US20070142433A1", "about": "“Angiogenesis-affecting compounds and methods of use thereof” (priority 2004, published 2007)", "key": {"HDMEC": {"tested_on": "HDMEC", "experiment": "Cell proliferation assay (crystal violet), HDMEC", "type": "cell-based", "details": "72 hours, OD 595 nm", "procedure": "(§1) In order to further confirm the surprising results described above, the compounds were tested in a cell proliferation assay. Crystal violet was used to measure cell proliferation; this basic dye stains cell nuclei and provides a sensitive, rapid evaluation. Light absorption of unstained or destained cell layers is negligible, making it possible to perform cell number measurements in wells. Six cell types (HUVEC, HDMEC, SMC, Fibroblast, A375 and RENCA) were plated and treated with the compounds in a log2 titration for 72 hours. The optimal cell number for each cell type was determined and optical density (OD) was measured at 595 nm. Each data point was measured in quadruplicate. The assay was stopped after 72 hours and subsequently analyzed. The OD-value of the plated cells before addition of the compounds was subtracted from all OD-values obtained after treatment. The percentage in relation to control proliferation was then calculated. Negative values therefore represent a count of fewer cells than were plated. The IC50 is given below in Table 1. Results are shown as a percentage in relation to the control proliferation. The IC50 were calculated using GraphPad Prism software (GraphPad Software, Inc.). Perhexiline results are depicted graphically in FIGS. 4A-4C and Erythromycin results in FIGS. 5A-5C."}, "HUVEC": {"tested_on": "HUVEC", "experiment": "Cell proliferation assay (crystal violet), HUVEC", "type": "cell-based", "details": "Homo sapiens, 72 hours, OD 595 nm", "procedure": "In order to further confirm the surprising results described above, the compounds were tested in a cell proliferation assay. Crystal violet was used to measure cell proliferation; this basic dye stains cell nuclei and provides a sensitive, rapid evaluation. Light absorption of unstained or destained cell layers is negligible, making it possible to perform cell number measurements in wells.\nSix cell types (HUVEC, HDMEC, SMC, Fibroblast, A375 and RENCA) were plated and treated with the compounds in a log2 titration for 72 hours. The optimal cell number for each cell type was determined and optical density (OD) was measured at 595 nm. Each data point was measured in quadruplicate. The assay was stopped after 72 hours and subsequently analyzed.\nThe OD-value of the plated cells before addition of the compounds was subtracted from all OD-values obtained after treatment. The percentage in relation to control proliferation was then calculated. Negative values therefore represent a count of fewer cells than were plated. The IC50 is given below in Table 1. Results are shown as a percentage in relation to the control proliferation. The IC50 were calculated using GraphPad Prism software (GraphPad Software, Inc.). Perhexiline results are depicted graphically in FIGS. 4A-4C and Erythromycin results in FIGS. 5A-5C. […]"}, "RENCA": {"tested_on": "RENCA", "experiment": "Cell proliferation assay (crystal violet), RENCA", "type": "cell-based", "details": "72 hours, OD 595 nm", "procedure": "as §1"}, "HUVEC sprouting": {"tested_on": "HUVEC sprouting", "experiment": "Primary angiogenesis screen, HUVEC spheroid evaluation (EC sprouting)", "type": "cell-based, human", "details": "HUVEC spheroids in collagen gel, VEGF-supplemented, 24 hours", "procedure": "A test substance was selected for evaluation in angiogenesis screens. The test substance was synthesized or obtained as appropriate and stored at −20° C. in DMSO. Prior to use, the test substance was thawed and 5 mM of the substance was diluted to a 10 fold concentrated working solution (100 μM) in endothelial cell basal medium. The basal medium fraction was supplemented with 25 ng VEGF/100 μl for the stimulation of HUVEC sprouting.\nThe screening procedures were modified versions of those described by Korff and Augustin (J Cell Sci 112: 3249-58, 1999). By way of summary, spheroids were prepared by pipetting 400 human umbilical vein endothelial cells (HUVEC) into each well of nonadhesive 96-well plates. Prior to use the HUVEC were cultured according to the supplier's instructions (PromoCell, Heidelberg, Germany). The cells were allowed to aggregate overnight into spheroids (Korff and Augustin: J Cell Biol 143: 1341-52, 1998). After aggregation, 48 HUVEC spheriods were harvested. Each harvested spheroid was seeded in 900 μl of methocel-collagen solution and pipetted into an individual well of a 24-well plate to allow collagen gel polymerization.\nThirty (30) minutes after seeding, the test substance was added. The working dilution (10 fold concentration) was utilized, 100 μl was pipetted on top of the polymerized collagen gel in each well. The plates were then incubated at 37° C. for 24 hours. At the end of the incubation period the plates were fixed by adding 1 ml paraformaldehyde (10%) to each well.\nThe HUVEC spheriods were microscopically assayed for endothelial cell (EC) sprouting intensity. The degree of EC sprouting was classified into one of four groups by comparing the degree of sprouting to that observed in VEGF control cells. […] For exemplary results, see FIG. 1."}, "[1]": {"tested_on": "Endothelial cells, Fibroblast, Alexander cells", "experiment": "Viability of cells (Endothelial cells, Fibroblast, Alexander cells)", "type": "cell-based"}, "B16F10 cells": {"tested_on": "B16F10 cells", "experiment": "Cell viability of B16F10 cells", "type": "cell-based", "details": "Mus musculus, B16-F10; after 24 and 48 hours incubation", "procedure": "(§2) A cell viability assay based on cellular reduction of resazurin to the fluorescent product resorufin was performed. Viable cells can metabolize and reduce the dye, whereas dead cells rapidly lose the capacity to do so, making the increase in fluorescence directly proportional to the number of viable cells. The tested compounds were added in a log2 titration and viable cells were analyzed 24 hours after treatment. The fluorescence was determined at an excitation wavelength of 560 nm and an emission wavelength of 590 nm. The percentage of viable cells in relation to the untreated control proliferation was calculated. […] Perhexiline results are depicted graphically in FIGS. 6A-6C and Erythromycin results in FIGS. 7A-7C.\nThrough the two aforementioned assays it was determined that RENCA cells are more sensitive when treated with Perhexiline than the other cell types in the proliferation assay and in the viability assay. Therefore, the B16F10 cells were subsequently tested. The B16F10 tumor model, like the RENCA model, is an orthotopic tumor model."}, "Fibroblast [2]": {"tested_on": "Fibroblast", "experiment": "Cytoviability assay (resazurin), Fibroblast", "type": "cell-based", "details": "24 hours after treatment, read-out: IC50 cell viability Fibroblast", "procedure": "as §2"}, "Fibroblast [3]": {"tested_on": "Fibroblast", "experiment": "Cell proliferation assay (crystal violet), Fibroblast", "type": "cell-based", "details": "72 hours, OD 595 nm", "procedure": "as §1"}}, "note": "pIC50: −log10 of the molar value. Counter-ions that a name gives are not always drawn."}
{"molecule": "C1CCC(C(CC2CCCCN2)C2CCCCC2)CC1", "note": "(centres unmarked) [Perhexiline, Perhexiline maleate]", "values": [{"measurement": "pIC50", "setting": "HDMEC", "value": 4.96}, {"measurement": "pIC50", "setting": "HUVEC", "value": 5.00}, {"measurement": "pIC50", "setting": "RENCA", "value": 5.12}, {"measurement": "EC sprouting intensity compared with VEGF control", "setting": "HUVEC sprouting", "value": "sprouting inhibition"}, {"measurement": "pIC50", "setting": "[1]", "value": "~5.00"}, {"measurement": "pIC50", "setting": "B16F10 cells", "value": 5.00}, {"measurement": "pIC50", "setting": "Fibroblast [2]", "value": 5.28}, {"measurement": "pIC50", "setting": "Fibroblast [3]", "value": 4.92}]}
